From patent US5659049A, “Antioxidant, antiphospholipase derivatives of ricinoleic acid” (Virginia Commonwealth University, priority 1995, dated 1997)

System: N. naja cobra venom phospholipase
Assay: In vitro inhibition of N. naja cobra venom phospholipase (FIG. 8)
Assay type: biochemical

In the case of `CCCCCCC(C/C=C\CCCCCCCC(=O)O)OC(=O)CCCCCCCCC(=O)O` (stereo not shown) [RISE-1, Ricinoleic Acid Sebacyl Ester], the “Inhibition of N. naja cobra venom phospholipase” value is reported as “dose related, selective in vitro inhibition”.
